{"source": "patent US20220390432A1", "about": "“METHODS OF CHARACTERIZING AND UTILIZING AGENT-CONDENSATE INTERACTIONS” (Whitehead Institute for Biomedical Research, priority 2019, published 2022)", "key": {"MED1 droplets": {"molecular_target": "T1, MED1 droplets (Homo sapiens, UniProt Q15648)", "T1 construct": "MED1—amino acids 600-1581; 6xHis (N); made in house; host or cells: LOBSTR cells (E. coli)", "T1 sequence (Q15648 600-1581)": "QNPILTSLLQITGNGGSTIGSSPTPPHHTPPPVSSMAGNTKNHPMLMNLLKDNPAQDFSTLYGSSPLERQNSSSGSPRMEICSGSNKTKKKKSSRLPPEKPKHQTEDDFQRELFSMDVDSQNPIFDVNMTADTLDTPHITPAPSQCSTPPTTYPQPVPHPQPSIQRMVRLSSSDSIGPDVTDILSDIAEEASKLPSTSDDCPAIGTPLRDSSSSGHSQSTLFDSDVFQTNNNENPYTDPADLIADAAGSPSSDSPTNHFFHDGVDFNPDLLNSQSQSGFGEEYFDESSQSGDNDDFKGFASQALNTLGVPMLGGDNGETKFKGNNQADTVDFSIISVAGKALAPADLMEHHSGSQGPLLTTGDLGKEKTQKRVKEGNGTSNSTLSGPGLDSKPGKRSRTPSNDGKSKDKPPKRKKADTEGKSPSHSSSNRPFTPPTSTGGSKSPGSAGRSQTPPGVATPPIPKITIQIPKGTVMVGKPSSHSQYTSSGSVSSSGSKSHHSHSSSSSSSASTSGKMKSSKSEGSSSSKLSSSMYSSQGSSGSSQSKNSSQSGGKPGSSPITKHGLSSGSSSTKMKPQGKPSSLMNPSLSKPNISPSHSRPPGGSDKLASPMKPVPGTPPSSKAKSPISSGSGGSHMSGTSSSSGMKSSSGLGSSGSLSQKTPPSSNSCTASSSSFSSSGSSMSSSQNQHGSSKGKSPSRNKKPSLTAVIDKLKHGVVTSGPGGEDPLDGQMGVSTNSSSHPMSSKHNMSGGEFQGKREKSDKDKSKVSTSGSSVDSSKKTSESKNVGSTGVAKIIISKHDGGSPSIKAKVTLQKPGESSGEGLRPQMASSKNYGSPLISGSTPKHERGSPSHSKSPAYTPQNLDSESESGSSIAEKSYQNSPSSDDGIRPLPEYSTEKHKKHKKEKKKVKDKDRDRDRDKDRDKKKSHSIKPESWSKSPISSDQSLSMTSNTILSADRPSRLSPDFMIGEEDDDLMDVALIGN", "experiment": "In vitro droplet drug chase out experiment", "assay_type": "binding", "conditions": "100 μM FLTX1, 10-fold excess (1 mM) tamoxifen", "procedure": "For chase-out experiments 5 μM labeled cisplatin-TR was added to a MED1 droplets reaction (10 μM MED1, 50 mM Tris-HCl pH 7.5, 10% glycerol, 1 mM DTT, 10% PEG) in order to form MED1 droplets concentrated with Cisplatin-TR. Unlabeled transplatin or unlabeled cisplatin (vehicle, 10 μM, 100 μM, or 500 μM) were added to the droplet mixture and the amount of labeled cisplatin-TR remaining in the droplet is measured after chase out. 100 μM fluorescent FLTX1 was added to a MED1 droplets reaction (10 μM MED1, 50 mM Tris-HCl pH 7.5, 10% glycerol, 1 mM DTT, 10% PEG) in order to form MED1 droplets concentrated with FLTX1."}, "[1]": {"test_system": "ERα-MED1 condensate at the Lac array in U2OS cells", "experiment": "Lac array assay with tethered ER, MED1 immunofluorescence", "assay_type": "cell-based, human", "conditions": "for effect on ER/MED1 condensate at the Lac array: tethered ER, estrogen", "description": "When the transcriptional apparatus is recruited to that site a mediator condensate is detectable by immunofluorescence (Middle) U20S-Lac cells were transfected with a construct expressing the Lac DBD fused to the ER LBD and GFP+/− a construct overexpressing MED1. […] (Right) Quantification of MED1 enrichment relative at the Lac array, error bars represent SD.\nConstructs were assembled by NEB HIFI cloning in pSV2 mammalian expression vector containing an SV40 promoter driving expression of a mCherry-LacI fusion protein. The intrinsically disordered region of MED1, HP1α, or the activation domain of ESR1 was fused by the c-terminus to this recombinant protein, joined by the linker sequence […] (SEQ ID NO: 16). For experiments comparing FLTX1 enrichment at the array, U20S-Lac cells were plated onto chambered coverglass (1.5 Borosilicate Glass, Nunc Lab-Tek, 155409) and transfected with either MED1 IDR or HP1α constructs with lipofectamine 3000 (Thermofisher L3000015). After 24 hours, cells were treated with either 1 uM FLTX1 or vehicle (DMF). After 30 minutes, cells were imaged on the Zeiss LSM 880 confocal microscope with Airyscan detector with 63× objective at 37° C. For experiments with high MED1, cells grown in DMEM were plated on glass coverslips and transfected using lipofectamine 3000 (Thermofisher L3000015). A construct with a mammalian expression vector containing a PGK promoter driving the expression of MED1 fused to GFP was co-transfected in high MED1 conditions. […]\nFor analysis of Lac array data comparing MED1 or HP1α tethered, a region of interest was called using the signal in the Lac array (561 channel). The average fluorescent signal for FLTX1 (488 channel) was then measured in the region of interest and divided by the average fluorescence in the region of interest at the Lac array. […] For analysis of Lac array data for MED1 overexpression, enrichment was calculated by dividing the average fluorescent signal for MED1 immunofluorescence at the region of interest, defined by the ER tethered at the lac array, by MED1 immunofluorescence signal at a random nuclear region."}, "ERα point mutations": {"test_system": "ERα point mutations", "conditions": "reference (52); cited from earlier work"}, "[2]": {"test_system": "MED1 condensates at MYC in MCF7 cells", "experiment": "Immunofluorescence with DNA FISH, MED1 condensates at the MYC oncogene", "assay_type": "cell-based, human", "conditions": "estrogen-starved MCF7 treated with estrogen or estrogen and tamoxifen", "procedure": "MCF7 cells were grown in estrogen-free DMEM for 3 days on Poly-L-ornithine coated coverslips in 24 well plates at an initial seeding density of 50,000 cells per well. Cells were then treated with vehicle, 10 uM estradiol, or 10 uM estradiol and 5 uM 4-hydroxytamoxifen for 45 minutes.\nCells on cover slips were then fixed in 4% paraformaldehyde. Immunofluorescence was performed as described above. After incubating the cells with the secondary antibodies, cells were washed three times in PBS for 5 min at RT, fixed with 4% PFA in PBS for 10 min and washed three times in PBS. Cells were incubated in 70% ethanol, 85% ethanol and then 100% ethanol for 1 minute at RT. Probe hybridization mixture was made mixing […], of FISH Hybridization Buffer (Agilent G9400A), 1 μl of FISH probes (SureFISH 8q24.21 MYC 294 kb G101211R-8) and 2 μL of water.\n5 μL of mixture was added on a slide and coverslip was placed on top (cell-side toward the hybridization mixture). Coverslip was sealed using rubber cement. Once rubber cement solidified, genomic DNA and probes were denatured at 78° C. for 5 minutes and slides were incubated at 16° C. in the dark O/N. The coverslip was removed from slide and incubated in pre-warmed Wash Buffer 1 (Agilent, G9401A) at 73° C. for 2 minutes and in Wash Buffer 2 (Agilent, G9402A) for 1 minute at RT. […]"}, "[3]": {"test_system": "patient-derived ERα mutants and MED1", "experiment": "In vitro droplet assay of patient-derived ERα mutants with MED1", "assay_type": "biochemical, human", "conditions": "100 μM estrogen, 100 μM tamoxifen"}}, "note": "Entries after “also recorded” stand apart in the source; their conditions may differ."}
{"smiles": "CC/C(=C(\\c1ccccc1)c1ccc(OCCN(C)C)cc1)c1ccccc1", "note": "[tamoxifen]", "values": [{"measurement": "chase out of FLTX1 from MED1 droplets", "setting": "MED1 droplets", "result": "diluted out"}, {"measurement": "chase out of FLTX1 from MED1 droplets", "setting": "MED1 droplets; listed as Tamoxifen", "result": "able to chase-out FLTX1"}, {"measurement": "effect on ERα-MED1 condensate at the Lac array when MED1 is overexpressed", "setting": "[1]; MED1 overexpressed", "result": "unable to dissociate the ERα-MED1 condensate"}, {"measurement": "effect on ER/MED1 condensate at the Lac array", "setting": "[1]", "result": "eliminated by tamoxifen"}, {"measurement": "effect on ER/MED1 condensate at the Lac array", "setting": "[1]; listed as Tamoxifen", "result": "reduced ER (green) and MED1 (red) containing condensates"}, {"measurement": "reduction of affinity for tamoxifen by ERα point mutations", "setting": "ERα point mutations", "result": "approximately 10 fold"}, {"measurement": "MED1 condensates at the MYC oncogene", "setting": "[2]", "result": "reduces these; also recorded: not in the absence of estrogen or in the presence of estrogen and tamoxifen"}, {"measurement": "disruption of ERα mutant/MED1 condensates", "setting": "[3]", "result": "not disrupted"}]}
